We go through six molecules from PubChem BioAssay AID1259411 (Chemical Carcinogenesis Research Information System (CCRIS), 2018).

Calls of active or inactive are those of the source. No rule for the calls is given here.

The data set relates to rodent carcinogenicity bioassays, tumor incidence. Description: CCRIS carcinogenicity studies. The source says:
The CCRIS database contains chemical records with carcinogenicity, mutagenicity, tumor promotion, and tumor inhibition test results. It was developed by the National Cancer Institute (NCI). Data are derived from studies cited in primary journals, current awareness tools, NCI reports, and other sources. Test results have been reviewed by experts in carcinogenesis and mutagenesis.
CCRIS provides historical information from the years 1985 - 2011. It is no longer updated.
This is an archive assay for CCRIS carcinogenicity studies.

With `Nc1ccc(N)c([N+](=O)[O-])c1`, the carcinogen call (Species: MOUSE, Strain/Sex: B6C3F1/FEMALE, Route: ORAL, Dose: 0, 2200, 4400 PPM IN DIET, Dose: 0, 2200, 4400 PPM IN DIET, Tumor Site: Type of Lesion: LIVER: HEPATOCELLULAR ADENOMA OR CARCINOMA) is “active; positive”; the carcinogen call (Species: MOUSE, Strain/Sex: B6C3F1/MALE, Route: ORAL, Dose: 0, 2200, 4400 PPM IN DIET, Dose: 0, 2200, 4400 PPM IN DIET) was “inactive; negative”; the carcinogen call (Species: RAT, Strain/Sex: F344/FEMALE, Route: ORAL, Dose: 0, 1100, 2200 PPM IN DIET, Dose: 0, 1100, 2200 PPM IN DIET) is “inactive; negative”; the carcinogen call (Species: RAT, Strain/Sex: F344/MALE, Route: ORAL, Dose: 0, 550, 1100 PPM IN DIET, Dose: 0, 550, 1100 PPM IN DIET) is “inactive; negative”.
Turning to `CC(C)[N+](=O)[O-]`, for the setting “Species: RAT, Route: INHALATION, Tumor Site: Type of Lesion: LIVER”, the carcinogen call was “active; positive”.
`O[C@@H]1[C@@H](O)[C@@H](O)OC[C@H]1O`: the carcinogen call was “inactive; negative” (Species: RAT, Strain/Sex: F344/FEMALE, Route: ORAL (DIET), Dose: 0, 2.5%, 5% FOR 104 WKS (STUDY DURATION: 104 WKS), Dose: 0, 2.5%, 5% FOR 104 WKS (STUDY DURATION: 104 WKS)) and “inactive; negative” (Species: RAT, Strain/Sex: F344/MALE, Route: ORAL (DIET), Dose: 0, 2.5%, 5% FOR 104 WKS (STUDY DURATION: 104 WKS), Dose: 0, 2.5%, 5% FOR 104 WKS (STUDY DURATION: 104 WKS)).
With `CC1(c2ccc(Oc3ccccc3)cc2)OC(=O)N(Nc2ccccc2)C1=O` (stereo unspecified), the carcinogen call (Species: Mouse, Strain/Sex: CRL: CD1 (ICR)BR/Female (60/Group), Route: Oral, Dose: 0, 1.0, 9.8, 130, 392 mg/kg/day of 97.4% famoxadone in diet for 18 mo, study duration 18 mo, Dose: 0, 1.0, 9.8, 130, 392 mg/kg/day of 97.4% famoxadone in diet for 18 mo, study duration 18 mo) is “inactive; negative”; the carcinogen call (Species: Mouse, Strain/Sex: CRL: CD1 (ICR)BR/Male (60/Group), Route: Oral, Dose: 0, 0.7, 6.8, 96, 274 mg/kg/day of 97.4% famoxadone in diet for 18 mo, study duration 18 mo, Dose: 0, 0.7, 6.8, 96, 274 mg/kg/day of 97.4% famoxadone in diet for 18 mo, study duration 18 mo) was “inactive; negative”; the carcinogen call (Species: Rat, Strain/Sex: CRL: CD BR/Female (62/Group), Route: Oral, Dose: 0, 0.53, 2.15, 10.7, 23.0 mg/kg/day of 97.4% famoxadone in diet for 24 mo, study duration 24 mo, Dose: 0, 0.53, 2.15, 10.7, 23.0 mg/kg/day of 97.4% famoxadone in diet for 24 mo, study duration 24 mo) is “inactive; negative”; the carcinogen call (Species: Rat, Strain/Sex: CRL: CD BR/Male (62/Group), Route: Oral, Dose: 0, 0.42, 1.62, 8.4, 16.8 mg/kg/day of 97.4% famoxadone in diet for 23 mo, study duration 23 mo, Dose: 0, 0.42, 1.62, 8.4, 16.8 mg/kg/day of 97.4% famoxadone in diet for 23 mo, study duration 23 mo) was “inactive; negative”.
In the case of `CCN=[N+]([O-])CC`, the carcinogen call was “active; positive” (Species: RAT, Route: ORAL, Tumor Site: Type of Lesion: LIVER: HEMANGIOENDOTHELIOMA); “active; positive” (Species: RAT, Route: SUBCUTANEOUS, Tumor Site: Type of Lesion: MAMMARY GLAND, BRAIN (OLFACTORY BULB): NEUROBLASTOMA, BRAIN: GLIOMA HEMATOPOIETIC SYSTEM (LEUKEMIA), Tumor Site: Type of Lesion: MAMMARY GLAND, BRAIN (OLFACTORY BULB): NEUROBLASTOMA, BRAIN: GLIOMA HEMATOPOIETIC SYSTEM (LEUKEMIA)); “active; positive” (Species: RAT, Strain/Sex: F344/MALE, Route: ORAL, Dose: 0, 14, 55 MG/ML IN A NEUTRAL DEIONIZED DRINKING WATER SOLUTION 5 D/WK FOR 30 WK (TOTAL DOSE 42; 132 MG) (STUDY DURATION:, Dose: 0, 14, 55 MG/ML IN A NEUTRAL DEIONIZED DRINKING WATER SOLUTION 5 D/WK FOR 30 WK (TOTAL DOSE 42; 132 MG) (STUDY DURATION:, Tumor Site: Type of Lesion: LIVER: CARCINOMA, HEMANGIOSARCOMA, ESOPHAGUS: TUMOR, NASAL CAVITY: SQUAMOUS CELL CARCINOMA, ADENOCARCINOMA, Tumor Site: Type of Lesion: LIVER: CARCINOMA, HEMANGIOSARCOMA, ESOPHAGUS: TUMOR, NASAL CAVITY: SQUAMOUS CELL CARCINOMA, ADENOCARCINOMA).
On to `O=CC1CO1` (stereo unspecified), for which the carcinogen call reads like this: (Species: MOUSE, Route: DERMAL, Tumor Site: Type of Lesion: INTEGUMENTARY SYSTEM (SKIN)) “active; positive”; (Species: MOUSE, Route: SUBCUTANEOUS, Tumor Site: Type of Lesion: INJECTION SITE) “active; positive”.
